In test [1] the test system is CCR5 knock-in (KICCR5) mice. Nature of the test: hypoxic pulmonary hypertension in CCR5 knock-in mice (chronic hypoxia 9% O2). Type of test: in vivo. The settings on record: Maraviroc 200 mg/kg/day. The text has this:
To assess the inhibitory effects of the CCR5 antagonist Maraviroc on development of pulmonary hypertension in mice, the inventors used CCR5 knock-in mice in which the murine CCR5 gene was replaced by the human CCR5 gene. CCR5 knock-in mice were used in these experiments because Maraviroc binds to the human CCR5 but not to the murine CCR5 protein.
Male mice (12 months old), were exposed to chronic hypoxia (9% O2) in a ventilated chamber (Biospherix, New York, N.Y.). Mice were anesthetized with ketamine (60 mg/Kg) and xylazine (10 mg/Kg) intraperitoneally. A 26-gauge needle connected to a pressure transducer was inserted into the right ventricle, and right ventricular systolic pressure (RVSP) was recorded. After the assessment of hemodynamic parameters, all mice were sacrificed by cardiac puncture and exsanguinations. The heart was dissected out and weighed for calculation of the Fulton index (ratio of right ventricular free wall weight over the sum of the septum plus left ventricular free wall weights: RV/LV+S). The left lung was inflated and fixed with formalin buffer for assessments of pulmonary vessel muscularization and of PA-SMC proliferation using Ki67 immunostaining

For test [2], the system named is human pulmonary-artery smooth muscle cells (PA-SMCs). Nature of the test: CCL5-stimulated proliferation of human pulmonary-artery smooth muscle cells (MTT assay). Type of test: cell-based. The settings on record: 48 h with CCL5 and Maraviroc, FIG. 4. On the procedure:
The effects of Maraviroc on cell proliferation was investigated in primary cultures of human pulmonary-artery smooth muscle cells (PA-SMCs) collected from lung tissue samples of patients undergoing lung resection surgery. Cell proliferation was assessed by using the tetrazolium salt (MTT) assay (Sigma, Lyon, France) during conditions of stimulation with the CCR5 ligand CCL5. Human PA-SMCs were seeded onto 24-well for 48 h. PA-SMCs were synchronized for 48 h in media without serum prior cell proliferation stimulation in presence of CCL5 or CCL5 and Maraviroc. 48 hours after, MTT (100 μg/mL) was added and incubated for 4 h. The media was removed and crystals formed were dissolved in […] of dimethylsulfoxide (DMSO, Sigma) and the mixture was shaken for a few minutes to achieve complete dissolution. Aliquots (200 μL) of the resulting solutions were transferred to 96-well plates and absorbance was recorded at 520 nm using the Microplate Spectrophotometer System.

The subject of another test is wild-type (WT) mice. The test is described as follows: hypoxic pulmonary hypertension in wild-type mice (chronic hypoxia 9% O2). To be noted: Maraviroc 200 mg/kg/day. The format is in vivo.

On to `Cc1nnc(C(C)C)n1[C@@H]1C[C@H]2CC[C@@H](C1)N2CC[C@H](NC(=O)C1CCC(F)(F)CC1)c1ccccc1` [Maraviroc, 4,4-difluoro-N-{(1S)-3-[3-(3-isopropyl-5-methyl-4H-1,2,4-triazol-4-yl)-8-azabicyclo[3.2.1]oct-8-yl]-1-phenylpropyl}cyclohexanecarboxamide], for which the entries for the “Right ventricular systolic pressure (RVSP)” value (in test [1] (FIG. 3A); in the test on wild-type (WT) mice (FIG. 3A)) were “reduction” and “not in WT mice”, respectively. Besides, in test [1] (FIG. 3B), the Fulton index entry is listed as “reduction”. Also, the “% of muscularized vessels” value in test [1] (FIG. 3C) is listed as “reduction”. Besides, the “proliferative cells detected by ki67 immunostaining” value is recorded as “reduction” in test [1] (FIG. 3D) and “not in WT mice” in the test on wild-type (WT) mice (FIG. 3D). Also, the “Proliferation of human pulmonary artery smooth muscle cells stimulated by the CCR5 ligand CCL5” value in test [2] is “significantly reduced”.

The record behind these values is patent publication US20140271680A1, “METHODS AND PHARMACEUTICAL COMPOSITIONS FOR TREATMENT OF PULMONARY HYPERTENSION” (UNIVERSITE PARIS-EST CRETEIL VAL DE MARNE, priority 2011, published 2014).
